Source: patent US20230066011A1, “PYRROLOPYRIMIDINE DERIVATIVE, AND PHARMACEUTICAL COMPOSITION FOR PREVENTING OR TREATING PROTEIN KINASE-RELATED DISEASE COMPRISING SAME AS ACTIVE INGREDIENT” (VORONOI CO., LTD., priority 2019, published 2023)

Key:
Assay type in all cases: biochemical
[1] = molecular target: T1, human GST-DYRK1A (Homo sapiens, UniProt Q13627); experiment: GST-DYRK1A enzyme inhibition, ADP-Glo kinase assay; conditions: ATP 10 μM, GST-DYRK1A full length, read-out: DYRK1 IC50
T1 construct: purified human GST-DYRK1A (full length, Thermo Scientifics) enzyme; purchased Thermo Scientifics
Procedure, shortened: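 Full-length human GST-DYRK1A (10 ng) with 10 μM ATP and specific substrate in 40 mM Tris-HCl pH 7.4, 20 mM MgCl2, 0.5 mg/mL BSA, 50 μM DTT, 1 h at 25 °C. ADP formation read by ADP-Glo luminescence relative to solvent control; IC50 from three data sets.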

[2] = molecular target: T2, human GST-CLK1 (Homo sapiens, UniProt P49759); experiment: GST-CLK1 enzyme inhibition, ADP-Glo kinase assay; conditions: ATP 10 μM, GST-CLK1 129-end
T2 construct: purified human GST-CLK1 (129-end, SignalChem) enzyme; purchased SignalChem
T2 sequence (P49759 129-484 limits assumed): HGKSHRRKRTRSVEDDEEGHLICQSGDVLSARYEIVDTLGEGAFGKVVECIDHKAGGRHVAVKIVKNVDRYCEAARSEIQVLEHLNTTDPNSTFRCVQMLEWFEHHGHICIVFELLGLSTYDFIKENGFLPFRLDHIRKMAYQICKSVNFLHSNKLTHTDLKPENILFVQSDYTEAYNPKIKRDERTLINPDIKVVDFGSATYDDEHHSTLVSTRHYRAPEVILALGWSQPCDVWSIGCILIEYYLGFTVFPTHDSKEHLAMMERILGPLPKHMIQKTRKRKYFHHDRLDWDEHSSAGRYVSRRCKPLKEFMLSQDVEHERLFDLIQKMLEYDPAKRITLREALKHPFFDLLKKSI
Procedure, shortened: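 Human GST-CLK1 (129-end, 3 ng) reacted with substrate and 10 μM ATP for 1 h at 25° C in 40 mM Tris-HCl pH 7.4, 20 mM MgCl2, 0.5 mg/mL BSA, 50 μM DTT. ADP-Glo luminescence was normalised to solvent control; IC50 (nM) from 3 data sets.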

[3] = molecular target: LRRK2 (Homo sapiens, UniProt Q5S007); experiment: LRRK2 enzyme inhibition, ADP-Glo kinase assay; design: purchased Invitrogen PR8604B; conditions: ATP 10 μM
Chain of LRRK2 (Q5S007 970-2527 limits assumed): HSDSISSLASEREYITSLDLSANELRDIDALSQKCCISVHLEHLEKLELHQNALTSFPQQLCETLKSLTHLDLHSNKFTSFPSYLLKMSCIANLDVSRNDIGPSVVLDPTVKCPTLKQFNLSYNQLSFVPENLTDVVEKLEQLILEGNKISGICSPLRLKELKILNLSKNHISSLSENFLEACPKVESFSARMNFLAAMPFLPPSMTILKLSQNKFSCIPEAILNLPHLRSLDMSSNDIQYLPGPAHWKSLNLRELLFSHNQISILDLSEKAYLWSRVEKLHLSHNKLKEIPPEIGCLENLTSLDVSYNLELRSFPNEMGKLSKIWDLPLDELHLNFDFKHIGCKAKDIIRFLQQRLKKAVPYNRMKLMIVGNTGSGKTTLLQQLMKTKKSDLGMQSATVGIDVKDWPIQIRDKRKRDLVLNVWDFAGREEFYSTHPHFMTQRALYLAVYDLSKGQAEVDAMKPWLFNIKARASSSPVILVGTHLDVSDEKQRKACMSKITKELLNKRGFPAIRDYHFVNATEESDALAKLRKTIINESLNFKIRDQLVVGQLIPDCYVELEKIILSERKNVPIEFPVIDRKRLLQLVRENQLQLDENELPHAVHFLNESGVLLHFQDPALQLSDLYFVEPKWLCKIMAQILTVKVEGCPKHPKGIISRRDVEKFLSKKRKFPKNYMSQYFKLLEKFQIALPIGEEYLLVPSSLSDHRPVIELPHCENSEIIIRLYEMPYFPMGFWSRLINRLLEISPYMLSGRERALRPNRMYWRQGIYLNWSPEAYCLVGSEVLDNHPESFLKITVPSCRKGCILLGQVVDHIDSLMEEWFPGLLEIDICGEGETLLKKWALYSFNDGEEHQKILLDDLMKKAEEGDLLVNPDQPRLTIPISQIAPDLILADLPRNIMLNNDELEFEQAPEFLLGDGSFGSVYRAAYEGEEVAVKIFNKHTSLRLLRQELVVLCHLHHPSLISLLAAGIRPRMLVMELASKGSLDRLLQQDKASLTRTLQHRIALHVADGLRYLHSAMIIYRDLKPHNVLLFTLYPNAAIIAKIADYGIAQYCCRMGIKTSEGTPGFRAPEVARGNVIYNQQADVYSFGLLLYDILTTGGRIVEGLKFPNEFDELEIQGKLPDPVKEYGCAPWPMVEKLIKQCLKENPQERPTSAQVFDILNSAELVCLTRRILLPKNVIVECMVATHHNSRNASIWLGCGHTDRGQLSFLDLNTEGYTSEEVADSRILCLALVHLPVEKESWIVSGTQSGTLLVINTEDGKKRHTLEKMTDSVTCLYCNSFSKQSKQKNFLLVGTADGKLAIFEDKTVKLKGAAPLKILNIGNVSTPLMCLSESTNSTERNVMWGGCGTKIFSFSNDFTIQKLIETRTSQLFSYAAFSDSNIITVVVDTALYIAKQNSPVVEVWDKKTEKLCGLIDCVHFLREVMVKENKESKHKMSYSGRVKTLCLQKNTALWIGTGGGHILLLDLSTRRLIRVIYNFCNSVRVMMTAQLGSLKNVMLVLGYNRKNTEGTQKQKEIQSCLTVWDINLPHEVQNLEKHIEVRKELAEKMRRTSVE
Description: To evaluate an inhibitory activity of the compound according to the present invention against LRRK2, LRRK2 (G2019S), DYRK1, CLK1, and TTK kinases, experiments were performed as follows.
Each of the Example compounds was reacted with a purified human LRRK2 (Invitrogen #PR8604B) enzyme to evaluate an ability to inhibit an enzyme using a method as described below. A composition of 40 mM Tris-HCl (pH 7.4), 20 mM MgCl2, 0.5 mg/mL BSA, and 50 μM DTT was used as a reaction buffer, and all reactions of test substances were performed in the reaction buffer. Each of the compounds was diluted […] from a 10 mM DMSO stock using a serial dilution method, and enzyme activities were measured at final compound concentrations of 50, 10, 2, 0.4, 0.08, 0.016, 0.0032, 0.00064, 0.000128, 0.0000256, 0.00000512, and 0.000001024 μM. In the test, purified ATP (10 μM) and an enzyme substrate (0.2 μg) were reacted with a human LRRK2 (25 ng) enzyme at 25° C. for 2 hours, and the enzyme activities were determined using an in vitro ADP-Glo™ kinase assay (Promega). An enzyme-activity reaction solution, an ADP-Glo reaction solution, and an enzyme-ability detection solution were reacted at a ratio of 2:2:1 to measure a degree of inhibition of the enzyme activity with luminescence. The degree of inhibition of the enzyme activity according to the treatment concentration of each of the compounds was calculated based on the fluorescence of the enzyme activity of the solvent control which was not treated with the compound. In this case, the concentration of each of the compounds inhibiting 50% of the enzyme activity was determined to be an IC50 (nM) value, and calculated using Prism (Version 5.01; GraphPad) software.

[4] = molecular target: LRRK2 (G2019S) (Homo sapiens, UniProt Q5S007, G2019S); experiment: LRRK2 G2019S enzyme inhibition, ADP-Glo kinase assay; design: purchased SignalChem L10-12GG; conditions: ATP 25 μM
Chain of LRRK2 (G2019S) (Q5S007 970-2527 G2019S limits assumed): as the sequence (Q5S007 970-2527 limits assumed) above, with G1050S counted along it
Procedure, shortened: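 Purified human LRRK2 G2019S (16 ng) with 25 μM ATP and 0.2 μg substrate, 2 h at 25° C. in Tris-HCl pH 7.4, MgCl2, BSA, DTT buffer; compounds at 12 final concentrations, 50 μM down to 0.000001024 μM. ADP-Glo luminescence versus solvent control gave IC50.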

| Compound | IC50 [1] [nM] | IC50 [2] [nM] | IC50 [3] [nM] | IC50 [4] [nM] |
| --- | --- | --- | --- | --- |
| CC(C)Nc1nc(Nc2ccc(C(=O)N3CCC(N4CCOCC4)CC3)c3c2OCCO3)nc2[nH]cc(C#N)c12 [Example 140, 4-(isopropylamino)-2-((8-(4-morpholinopiperidine-1-carbonyl)-2,3-dihydrobenzo[b][1,4]dioxin-5-yl)amino)-7H-pyrrolo[2,3-d]pyrimidine-5-carbonitrile] | 301 to 1000 | < 100 | < 100 |  |
| CC(C)CNc1nc(Nc2ccc(C(=O)N3CCOCC3)c3c2OCCO3)nc2[nH]cc(C(F)(F)F)c12 [Example 169, (8-((4-(isobutylamino)-5-(trifluoromethyl)-7H-pyrrolo[2,3-d]pyrimidin-2-yl)amino)-2,3-dihydrobenzo[b][1,4]dioxin-5-yl)(morpholino)methanone] | 301 to 1000 | 301 to 1000 | < 100 |  |
| CC[C@@H](C)Nc1nc(Nc2ccc(S(C)(=O)=O)cc2OC)nc2[nH]cc(C(F)(F)F)c12 [Example 173, (R)-N^4-(sec-butyl)-N^2-(2-methoxy-4-(methyslulfonyl)phenyl)-5-(trifluoromethyl)-7H-pyrrolo[2,3-d]pyrimidine-2,4-diamine] | 301 to 1000 | 301 to 1000 | < 100 |  |
| COc1cc(S(C)(=O)=O)ccc1Nc1nc(NC2CCCC2)c2c(C(F)(F)F)c[nH]c2n1 [Example 188, N^4-cyclopentyl-N^2-(2-methoxy-4-(methylsulfonyl)phenyl)-5-(trifluoromethyl)-7H-pyrrolo[2,3-d]pyrimidine-2,4-diamine] | 301 to 1000 | 301 to 1000 | 301 to 1000 |  |
| O=C(c1ccc(Nc2nc(NC3CCCCC3)c3c(C(F)(F)F)c[nH]c3n2)c2c1OCCO2)N1CCOCC1 [Example 190, (8-((4-(cyclohexylamino)-5-(trifluoromethyl)-7H-pyrrolo[2,3-d]pyrimidin-2-yl)amino)-2,3-dihydrobenzo[b][1,4]dioxin-5-yl)(morpholino)methanone] | 301 to 1000 | 301 to 1000 | < 100 |  |
| O=C(c1ccc(Nc2nc(NCC3CC3)c3c(C(F)(F)F)c[nH]c3n2)c2c1CCO2)N1CCOCC1 [Example 457, (7-((4-((cyclo-propylmeth-yl)amino)-5-(trifluoromethyl)-7H-pyrrolo[2,3-d]pyrimidin-2-yl)amino)-2,3-dihydrobenzo-furan-4-yl) (morpholino) methanone] | 301 to 1000 | < 100 |  | < 100 |
| O=C(c1ccc(Nc2nc(NCC3CCC3)c3c(C(F)(F)F)c[nH]c3n2)c2c1CCO2)N1CCOCC1 [Example 458, (7-((4-((cyclo-butylmethyl)amino)-5-(trifluoromethyl)-7H-pyrrolo[2,3-d]pyrimidin-2-yl)amino)-2,3-dihydrobenzo-furan-4-yl) (morpholino) methanone] | 301 to 1000 | 301 to 1000 |  | < 100 |
| O=C(c1ccc(Nc2nc(NC3CCCC3)c3c(C(F)(F)F)c[nH]c3n2)c2c1CCO2)N1CCC(N2CCOCC2)CC1 [Example 459, (7-((4-(cyclo-pentylamino)-5-(trifluoromethyl)-7H-pyrrolo[2,3-d]pyrimidin-2-yl)amino)-2,3-dihydrobenzo-furan-4-yl)(4-morpho-linopiperidin-1-yl)methanone] | 301 to 1000 | 301 to 1000 |  | < 100 |
| O=C(c1ccc(Nc2nc(NCC3CCCC3)c3c(C(F)(F)F)c[nH]c3n2)c2c1CCO2)N1CCOCC1 [Example 463, (7-((4-((cyclo-pentylmeth-yl)amino)-5-(trifluoromethyl)-7H-pyrrolo[2,3-d]pyrimidin-2-yl)amino)-2,3-dihydrobenzo-furan-4-yl) (morpholino) methanone] | 301 to 1000 | 301 to 1000 |  | 301 to 1000 |
| CCCCNc1nc(Nc2ccc(C(=O)N3CCOCC3)c3c2OCC3)nc2[nH]cc(C(F)(F)F)c12 [Example 465, (7-((4-(butylamino)-5-(trifluoromethyl)-7H-pyrrolo[2,3-d]pyrimidin-2-yl)amino)-2,3-dihydrobenzo-furan-4-yl) (morpholino) methanone] | 301 to 1000 | 301 to 1000 |  | < 100 |

The remaining lines, values ahead:

| IC50 [1] [nM] | IC50 [2] [nM] | IC50 [3] [nM] | IC50 [4] [nM] | Compound |
| --- | --- | --- | --- | --- |
| 301 to 1000 | 301 to 1000 | < 100 |  | COc1cc(S(=O)(=O)N2CCC(N3CCOCC3)CC2)ccc1Nc1nc(NCC2CCC2)c2c(C#N)c[nH]c2n1 [Example 94, 4-((cyclobutylmethyl)amino)-2-((2-methoxy-4-((4-morpholinopiperidin-1-yl)sulfonyl)phenyl)amino)-7H-pyrrolo[2,3-d]pyrimidine-5-carbonitrile] |
| 301 to 1000 | 301 to 1000 | < 100 |  | COc1cc(S(C)(=O)=O)ccc1Nc1nc(NC2CCOCC2)c2c(C#N)c[nH]c2n1 [Example 109, 2-((2-methoxy-4-(methylsulfonyl)phenyl)amino)-4-((tetrahydro-2H-pyran-4-yl)amino)-7H-pyrrolo[2,3-d]pyrimidine-5-carbonitrile] |
| 301 to 1000 | 301 to 1000 | < 100 |  | COCC(C)(C)Nc1nc(Nc2ccc(S(C)(=O)=O)cc2OC)nc2[nH]cc(C#N)c12 [Example 111, 4-((1-methoxy-2-methylpropan-2-yl)amino)-2-((2-methoxy-4-(methylsulfonyl)phenyl)amino)-7H-pyrrolo[2,3-d]pyrimdiine-5-carobnitrile] |
| 301 to 1000 | 301 to 1000 | < 100 |  | COc1cc(S(C)(=O)=O)ccc1Nc1nc(NCC2CCC2)c2c(C#N)c[nH]c2n1 [Example 112, 4-((cyclobutylmethyl)amino)-2-((2-methoxy-4-(methylsulfonyl)phenyl)amino)-7H-pyrrolo[2,3-d]pyrimidine-5-carbonitrile] |
| 301 to 1000 | 301 to 1000 | < 100 |  | COc1cc(S(C)(=O)=O)ccc1Nc1nc(NCC2CCCC2)c2c(C#N)c[nH]c2n1 [Example 113, 4-((cyclopentylmethyl)amino)-2-((2-methoxy-4-(methylsulfonyl)phenyl)amino)-7H-pyrrolo[2,3-d]pyrimidine-5-carbonitrile] |
| 301 to 1000 | < 100 | < 100 |  | COCC(C)(C)Nc1nc(Nc2ccc(C(=O)N3CCOCC3)c3c2OCCO3)nc2[nH]cc(C#N)c12 [Example 131, 4-((1-methoxy-2-methylpropan-2-yl)amino)-2-((8-(morpholine-4-carbonyl)-2,3-dihydrobenzo[b][1,4]dioxin-5-yl)amino)-7H-pyrrolo[2,3-d]pyrimidine-5-carbonitrile] |
| 301 to 1000 | 301 to 1000 | < 100 |  | N#Cc1c[nH]c2nc(Nc3ccc(C(=O)N4CCOCC4)c4c3OCCO4)nc(NCC3CCC3)c12 [Example 132, 4-((cyclobutylmethyl)amino)-2-((8-(morpholine-4-carbonyl)-2,3-dihydrobenzo[b][1,4]dioxin-5-yl)amino)-7H-pyrrolo[2,3-d]pyrimidine-5-carbonitrile] |
| 101 to 300 | 101 to 300 | < 100 |  | O=C(c1ccc(Nc2nc(NC3CCCC3)c3c(C(F)(F)F)c[nH]c3n2)c2c1OCCO2)N1CCOCC1 [Example 189, (8-((4-(cyclopentylamino)-5-(trifluoromethyl)-7H-pyrrolo[2,3-d]pyrimidin-2-yl)amino)-2,3-dihydrobenzo[b][1,4]dioxin-5-yl)(morpholino)methanone] |
| < 100 | < 100 | < 100 |  | CNc1nc(Nc2ccc(C(=O)N3CCOCC3)c3c2OCO3)nc2[nH]cc(C(F)(F)F)c12 [Example 214, (7-((4-(methylamino)-5-(trifluoromethyl)-7H-pyrrolo[2,3-d]pyrimidin-2-yl)amino)benzo[d][1,3]dioxol-4-yl)(morpholino)methanone] |
